Laboratory results: ChEMBL document CHEMBL5356985, “Development of trisubstituted thiophene-3-arboxamide selenide derivatives as novel EGFR kinase inhibitors with cytotoxic activity” (RSC Med Chem, 2023)
pIC50: −log10 of the molar value. Values after ≈ are worked out from the molar mass of the structure shown.

How the values were obtained:
A549 [1] = experiment: Antiproliferative activity against human A549 cells assessed as reduction in cell viability; type: functional, cell-based
[2] = Cytotoxicity against human L02 cells assessed as reduction in cell viability; type: toxicity, cell-based
[3] = Selectivity index, ratio of IC50 for cytotoxicity against human L02 cells to IC50 for antiproliferative activity against human A549 cells; type: toxicity, cell-based; details: L02 cells and A549 cells, read-out: Ratio IC50
A549 [4] = experiment: Antiproliferative activity against human A549 cells assessed as cell growth inhibition at 20 uM incubated for 48 hrs by MTT assay; type: functional
HCT-116 [5] = experiment: Antiproliferative activity against human HCT-116 cells assessed as cell growth inhibition at 20 uM incubated for 48 hrs by MTT assay; type: functional
MCF7 [6] = experiment: Antiproliferative activity against human MCF7 cells assessed as cell growth inhibition at 20 uM incubated for 48 hrs by MTT assay; type: functional
SK-MEL-28 [7] = experiment: Antiproliferative activity against human SK-MEL-28 cells assessed as cell growth inhibition at 20 uM incubated for 48 hrs by MTT assay; type: functional
A2780S = experiment: Antiproliferative activity against human A2780S cells assessed as reduction in cell viability incubated for 24 hrs by MTT assay; type: functional, cell-based
SK-OV-3 = experiment: Antiproliferative activity against human SK-OV-3 cells assessed as reduction in cell viability incubated for 24 hrs by MTT assay; type: functional, cell-based; details: SK-OV-3, 24 h
[8] = Solubility in human plasma at pH 7.2 to 7.8 incubated for 4 hrs by HPLC analysis; type: ADME, cell-free
MDA-MB-231 = experiment: Antiproliferative activity against human MDA-MB-231 cells assessed as reduction in cell viability incubated for 24 hrs by MTT assay; type: functional, cell-based; details: MDA-MB-231, 24 h
MCF7 [9] = experiment: Antiproliferative activity against human MCF7 cells assessed as reduction in cell viability incubated for 24 hrs by MTT assay; type: functional, cell-based; details: MCF7, 24 h
A549 [10] = experiment: Antiproliferative activity against human A549 cells assessed as cell growth inhibition incubated for 48 hrs by MTT assay; type: functional, cell-based; details: A549, 48 h
HCT-116 [11] = experiment: Antiproliferative activity against human HCT-116 cells assessed as cell growth inhibition incubated for 48 hrs by MTT assay; type: functional, cell-based; details: HCT-116, 48 h
MCF7 [12] = experiment: Antiproliferative activity against human MCF7 cells assessed as cell growth inhibition incubated for 48 hrs by MTT assay; type: functional, cell-based; details: MCF7, 48 h
SK-MEL-28 [13] = experiment: Antiproliferative activity against human SK-MEL-28 cells assessed as cell growth inhibition incubated for 48 hrs by MTT assay; type: functional, cell-based; details: SK-MEL-28, 48 h
[14] = Cytotoxicity against human HaCaT cells assessed as cell growth inhibition incubated for 48 hrs by MTT assay; type: toxicity, cell-based
[15] = target: T1, Epidermal growth factor receptor (Homo sapiens, UniProt P00533); experiment: Inhibition of EGFR (unknown origin) using poly E4Y1 and ATP as substrate incubated for 60 mins by ADP-Glo kinase assay
[16] = target: T1, Epidermal growth factor receptor; experiment: Inhibition of EGFR (unknown origin)
[17] = target: Epidermal growth factor receptor (Homo sapiens, UniProt P00533, L858R/T790M); experiment: Inhibition of EGFR T790M/L858R mutant (unknown origin)
Sequence of Epidermal growth factor receptor (Homo sapiens, UniProt P00533, L858R/T790M) (P00533 25-1210 T790M/L858R limits assumed): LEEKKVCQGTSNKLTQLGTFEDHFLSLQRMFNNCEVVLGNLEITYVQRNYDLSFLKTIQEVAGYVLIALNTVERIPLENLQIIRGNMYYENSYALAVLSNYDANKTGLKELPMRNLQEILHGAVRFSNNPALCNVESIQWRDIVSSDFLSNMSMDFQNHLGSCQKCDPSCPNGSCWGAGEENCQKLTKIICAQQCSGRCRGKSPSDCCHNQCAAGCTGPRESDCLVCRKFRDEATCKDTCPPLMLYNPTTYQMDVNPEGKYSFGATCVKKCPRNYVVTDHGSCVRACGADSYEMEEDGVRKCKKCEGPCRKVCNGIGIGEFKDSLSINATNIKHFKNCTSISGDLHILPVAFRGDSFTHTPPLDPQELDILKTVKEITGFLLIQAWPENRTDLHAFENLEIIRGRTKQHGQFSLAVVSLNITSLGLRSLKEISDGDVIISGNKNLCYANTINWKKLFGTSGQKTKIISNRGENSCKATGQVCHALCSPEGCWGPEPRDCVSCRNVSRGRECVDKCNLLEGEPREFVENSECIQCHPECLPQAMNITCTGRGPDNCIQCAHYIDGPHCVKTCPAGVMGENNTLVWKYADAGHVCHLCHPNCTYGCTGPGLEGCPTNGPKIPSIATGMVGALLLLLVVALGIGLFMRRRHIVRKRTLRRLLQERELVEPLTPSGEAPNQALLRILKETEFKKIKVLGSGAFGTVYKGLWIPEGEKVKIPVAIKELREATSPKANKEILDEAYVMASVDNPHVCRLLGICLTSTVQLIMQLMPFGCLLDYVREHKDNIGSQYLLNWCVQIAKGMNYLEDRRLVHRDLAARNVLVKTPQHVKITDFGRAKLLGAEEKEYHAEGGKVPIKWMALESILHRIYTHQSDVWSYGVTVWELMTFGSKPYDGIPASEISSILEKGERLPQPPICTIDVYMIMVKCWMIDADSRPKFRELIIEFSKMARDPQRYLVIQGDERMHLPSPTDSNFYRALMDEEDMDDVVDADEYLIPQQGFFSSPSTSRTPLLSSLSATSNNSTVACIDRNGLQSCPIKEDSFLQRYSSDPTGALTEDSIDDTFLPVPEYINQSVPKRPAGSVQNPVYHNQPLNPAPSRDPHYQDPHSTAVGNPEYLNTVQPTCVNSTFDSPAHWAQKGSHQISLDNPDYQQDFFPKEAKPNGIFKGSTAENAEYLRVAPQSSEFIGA

T1 sequence (P00533 whole entry): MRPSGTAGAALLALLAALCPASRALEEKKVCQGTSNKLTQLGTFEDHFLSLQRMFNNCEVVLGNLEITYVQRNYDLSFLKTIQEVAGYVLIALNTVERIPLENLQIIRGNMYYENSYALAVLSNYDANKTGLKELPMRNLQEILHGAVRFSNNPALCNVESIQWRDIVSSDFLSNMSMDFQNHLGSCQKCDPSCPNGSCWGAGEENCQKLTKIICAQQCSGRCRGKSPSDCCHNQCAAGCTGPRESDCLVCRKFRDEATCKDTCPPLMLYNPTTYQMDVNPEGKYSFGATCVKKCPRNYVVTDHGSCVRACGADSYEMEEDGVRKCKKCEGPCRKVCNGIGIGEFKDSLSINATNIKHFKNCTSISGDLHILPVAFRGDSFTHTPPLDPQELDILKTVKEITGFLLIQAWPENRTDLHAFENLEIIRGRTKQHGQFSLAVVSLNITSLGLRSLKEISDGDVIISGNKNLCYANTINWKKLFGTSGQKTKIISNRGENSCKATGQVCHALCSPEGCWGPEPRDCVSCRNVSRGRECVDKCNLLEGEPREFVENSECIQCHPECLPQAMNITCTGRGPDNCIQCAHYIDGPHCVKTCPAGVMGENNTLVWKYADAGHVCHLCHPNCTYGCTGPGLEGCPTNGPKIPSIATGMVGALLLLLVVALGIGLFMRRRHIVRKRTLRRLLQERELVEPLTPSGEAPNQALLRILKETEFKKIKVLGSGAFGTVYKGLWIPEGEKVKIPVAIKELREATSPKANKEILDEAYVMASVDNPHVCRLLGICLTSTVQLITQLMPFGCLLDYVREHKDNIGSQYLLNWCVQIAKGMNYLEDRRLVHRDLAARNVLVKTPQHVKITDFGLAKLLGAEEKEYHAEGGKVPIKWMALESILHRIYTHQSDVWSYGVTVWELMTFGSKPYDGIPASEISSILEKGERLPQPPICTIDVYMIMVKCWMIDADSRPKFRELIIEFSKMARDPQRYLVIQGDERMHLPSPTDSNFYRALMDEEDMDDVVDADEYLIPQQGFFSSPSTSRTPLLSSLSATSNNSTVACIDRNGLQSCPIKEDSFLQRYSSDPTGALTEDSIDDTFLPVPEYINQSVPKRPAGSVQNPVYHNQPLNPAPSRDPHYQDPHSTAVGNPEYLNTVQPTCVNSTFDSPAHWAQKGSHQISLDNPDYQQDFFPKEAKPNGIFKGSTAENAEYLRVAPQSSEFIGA

| SMILES | inhibition at 20 µM (A549 [4]) [%] | inhibition at 20 µM (HCT-116 [5]) [%] | inhibition at 20 µM (MCF7 [6]) [%] | inhibition at 20 µM (SK-MEL-28 [7]) [%] | pIC50 (A549 [10]) | pIC50 (HCT-116 [11]) | pIC50 (MCF7 [12]) | pIC50 (SK-MEL-28 [13]) | other results |
| --- | --- | --- | --- | --- | --- | --- | --- | --- | --- |
| COc1cc(C2c3cc4c(cc3C(OC3OC5COC(C)OC5C(O)C3O)C3COC(=O)C23)OCO4)cc(OC)c1O (stereo not drawn) |  |  |  |  |  |  |  |  | pIC50 (A549 [1]): 5.03; pIC50 [2]: 5.46; selectivity ratio [3]: 0.5 |
| Cc1sc([Se]c2sc(C)c(-c3cccc(Br)c3)c2C(=O)NC(C(=O)N2CCCC2)C(C)C)c(C(=O)NC(C(=O)N2CCCC2)C(C)C)c1-c1cccc(Br)c1 (stereo not drawn) | 44 | 51 | 72 | 34 |  |  |  |  |  |
| COc1ccc(/C=C/C(=O)c2ccc(OC)c3c2OC(C)(C)C=C3)cc1O |  |  |  |  |  |  |  |  | pIC50 (A2780S): 6.38; pIC50 (SK-OV-3): 6.38; solubility at 4 h [8]: 146 µg/mL (≈ 0.398 mM); pIC50 (MDA-MB-231): 6.38; pIC50 (MCF7 [9]): 6.38 |
| Cc1sc([Se]c2sc(C)c(-c3cccc(Cl)c3)c2C(=O)NC(C)C(=O)N2CCCC2)c(C(=O)NC(C)C(=O)N2CCCC2)c1-c1cccc(Cl)c1 (stereo not drawn) | 38 | 70 | 90 | 13 |  |  |  |  |  |
| Cc1sc([Se]c2sc(C)c(-c3cccc(F)c3)c2C(=O)NC(C)C(=O)N2CCCC2)c(C(=O)NC(C)C(=O)N2CCCC2)c1-c1cccc(F)c1 (stereo not drawn) | 77 | 72 | 86 | 62 | 4.88 | 5.09 | 4.84 | 4.84 | IC50 at 48 h [14]: 29.3 µM; pIC50 [15]: 6.08 |
| Cc1sc(Br)c(C(=O)NC(C)C(=O)N2CCCC2)c1-c1ccccc1 (stereo not drawn) |  |  |  |  | 4.40 | 4.43 | 4.41 | 4.26 |  |
| Cc1sc([Se]c2sc(C)c(-c3ccccc3)c2C(=O)NCC(=O)N2CCCC2)c(C(=O)NCC(=O)N2CCCC2)c1-c1ccccc1 | 45 | 25 | 89 | < 10 |  |  |  |  |  |
| COc1ccc(/C=C/C(=O)c2ccc(OC)c3c2OC(C)(C)C=C3)cc1OC(=O)CNC(=O)OC(C)(C)C |  |  |  |  |  |  |  |  | pIC50 (A2780S): 6.92; pIC50 (SK-OV-3): 6.92; solubility at 4 h [8]: 2980 µg/mL (≈ 5.69 mM); pIC50 (MDA-MB-231): 6.92; pIC50 (MCF7 [9]): 6.92 |
| Cc1sc(Br)c(C(=O)NC(C)C(=O)N2CCCC2)c1-c1cccc(F)c1 (stereo not drawn) |  |  |  |  | 4.35 | 4.51 | 4.32 | 4.31 |  |
| Cc1sc([Se]c2sc(C)c(-c3cccc(F)c3)c2C(=O)NC(Cc2ccccc2)C(=O)N2CCCC2)c(C(=O)NC(Cc2ccccc2)C(=O)N2CCCC2)c1-c1cccc(F)c1 (stereo not drawn) | 14 | 10 | 3 | < 10 |  |  |  |  |  |
| Cc1sc([Se]c2sc(C)c(-c3cccc(Br)c3)c2C(=O)NC(Cc2ccccc2)C(=O)N2CCCC2)c(C(=O)NC(Cc2ccccc2)C(=O)N2CCCC2)c1-c1cccc(Br)c1 (stereo not drawn) | 14 | 9 | 26 | 18 |  |  |  |  |  |
| O=C(N/N=C/c1cnc(N2CCCC2)nc1)Nc1cc2c(Nc3ccc(F)c(Cl)c3)ncnc2cc1O[C@@H]1CCOC1 |  |  |  |  |  |  |  |  | pIC50 [16]: 8.20; pIC50 [17]: 8.08 |
| Cc1sc([Se]c2sc(C)c(-c3ccccc3)c2C(=O)NC(C)C(=O)N2CCCC2)c(C(=O)NC(C)C(=O)N2CCCC2)c1-c1ccccc1 (stereo not drawn) | 82 | 69 | 90 | 72 | 4.82 | 5.09 | 4.82 | 4.98 | IC50 at 48 h [14]: 26.4 µM |
| Cc1sc([Se]c2sc(C)c(-c3cccc(F)c3)c2C(=O)NC(C(=O)N2CCCC2)C(C)C)c(C(=O)NC(C(=O)N2CCCC2)C(C)C)c1-c1cccc(F)c1 (stereo not drawn) | 35 | 63 | 58 | 36 |  |  |  |  |  |
| Cc1sc([Se]c2sc(C)c(-c3cccc(F)c3)c2C(=O)NCC(=O)N2CCCC2)c(C(=O)NCC(=O)N2CCCC2)c1-c1cccc(F)c1 | 79 | 73 | 88 | 70 | 4.76 | 5.04 | 4.87 | 4.94 | IC50 at 48 h [14]: 24.7 µM |
| O=c1[nH]cc(F)c(=O)[nH]1 [FLUOROURACIL] |  |  |  |  | 4.73 | 4.78 | 4.82 | 4.99 |  |
| Cc1sc(Br)c(C(=O)NC(CO)C(=O)N2CCCC2)c1-c1cccc(Br)c1 (stereo not drawn) |  |  |  |  | 4.54 | 4.61 | 4.49 | 4.26 |  |
| Cc1sc([Se]c2sc(C)c(-c3cccc(F)c3)c2C(=O)NC(CC(C)C)C(=O)N2CCCC2)c(C(=O)NC(CC(C)C)C(=O)N2CCCC2)c1-c1cccc(F)c1 (stereo not drawn) | 52 | 57 | 70 | 18 |  |  |  |  |  |
| c1ccc2c(c1)CCN2c1ncnc2cc3c(cc12)NCN3CCN1CCCC1 |  |  |  |  |  |  |  |  | pIC50 [16]: 7.49 |
| Cc1sc([Se]c2sc(C)c(-c3cccc(Cl)c3)c2C(=O)NC(CO)C(=O)N2CCCC2)c(C(=O)NC(CO)C(=O)N2CCCC2)c1-c1cccc(Cl)c1 (stereo not drawn) | 86 | 75 | 64 | 66 | 4.80 | 5.17 | 4.95 | 4.86 | IC50 at 48 h [14]: 31.8 µM; pIC50 [15]: 6.14 |
| Cc1sc(Br)c(C(=O)NCC(=O)N2CCCC2)c1-c1cccc(F)c1 |  |  |  |  | 4.37 | 4.41 | 4.36 | 4.40 |  |
| Cc1sc(Br)c(C(=O)NC(CO)C(=O)N2CCCC2)c1-c1cccc(Cl)c1 (stereo not drawn) |  |  |  |  | 4.47 | 4.46 | 4.43 | 4.24 |  |
| Cc1sc([Se]c2sc(C)c(-c3cccc(Cl)c3)c2C(=O)NC(Cc2ccccc2)C(=O)N2CCCC2)c(C(=O)NC(Cc2ccccc2)C(=O)N2CCCC2)c1-c1cccc(Cl)c1 (stereo not drawn) | 23 | 15 | 13 | 22 |  |  |  |  |  |
| Cc1sc([Se]c2sc(C)c(-c3cccc(F)c3)c2C(=O)NC(CO)C(=O)N2CCCC2)c(C(=O)NC(CO)C(=O)N2CCCC2)c1-c1cccc(F)c1 (stereo not drawn) | 27 | 61 | 85 | 25 |  |  |  |  |  |
| Cc1sc([Se]c2sc(C)c(-c3cccc(Cl)c3)c2C(=O)NC(C(=O)N2CCCC2)C(C)C)c(C(=O)NC(C(=O)N2CCCC2)C(C)C)c1-c1cccc(Cl)c1 (stereo not drawn) | 36 | 47 | 64 | < 10 |  |  |  |  |  |
